From patent US8034574B2, “Screening method for prokinetic agent” (Astellas Pharma Inc., priority 2006, dated 2011) come the findings set out here.

The term EC50 denotes the concentration giving half of the maximal effect.

Each structure is given as a SMILES string. Entries after “also recorded” stand apart in the source; their conditions may differ.

Test [1] has as its system mouse constipation model. Kind of test: Loperamide-induced mouse constipation model (bead discharge time). The conditions noted are these: loperamide 0.3 mg/kg s.c., 0.01 to 1 mg/kg oral. The test is classed as in vivo. The method, then: Because loperamide, a μ opioid receptor agonist, induces convulsive contraction in the gut and causes a delay of gut transportation, this experimental system is thought to be an experimental model of constipation type irritable bowel syndrome.
Mice (ddY, male, 5-week-old, SLC) were fasted from afternoon of the day before the experiment; on the day of the experiment, the mice were acclimated to the measurement cage for 1 hour or more, after which loperamide, 0.3 mg/kg, was administered subcutaneously. […] The mouse was returned to the measurement cage, and time from awakening to discharge of the glass beads was measured.

The subject of test [2] is RIN14B cells. Kind of test: Serotonin secretion from RIN14B cells (immunoassay). The test is classed as cell-based, rat. The note with it: 20 minutes culture. The method, then:
After RIN14B cells in culture in a Petri dish were detached using a PBS containing 1 mM EDTA, they were sown to a 96-well plate and cultured for 2 days. The medium used was RPMI1640 (Invitrogen Japan K.K.) supplemented with 10% fetal bovine serum (ICN), 100 U/ml penicillin, and 100 μg/ml streptomycin. After the cells were once washed with Hanks' Balanced Salt Solutions (HBSS, Invitrogen) supplemented with 0.1% BSA and 10 μM fluoxetine (TOCRIS), each TRPA1 activator, previously diluted/prepared with the above-described HBSS, was added, and the RIN14B cells were cultured at 37° C. in the presence of 5% CO2 for 20 minutes. After the cultivation, the cell supernatant was recovered, and stored under freezing. The serotonin content in the supernatant was measured using a commercially available serotonin immunoassay kit (Beckman).

In test [3] the test system is RIN14B cells. Kind of test: Channel activity in RIN14B cells using calcium-sensitive fluorescent reagent (FLIPR). The test is classed as cell-based, rat. The conditions noted are these: RIN14B cells, Fluo3-AM. The method, then:
RIN14B cells (5×10^4 cells), wherein the expression of TRPA1 was confirmed in Example 10, were incubated in the presence of a calcium-sensitive fluorescent reagent (Fluo3-AM; DOJINDO) at 37° C. for 1 hour to thereby incorporate the calcium-sensitive fluorescent reagent in the cells, after which the cells were washed with physiological saline to remove the calcium-sensitive fluorescent reagent that had not been incorporated in the cells. To the cells obtained, physiological saline supplemented with allyl isothiocyanate, cinnamic aldehyde, or acrolein was added; the fluorescence emitted by the cells was measured over time. The above-described measurements were performed using an automated fluorescence detection apparatus (FLIPR; Molecular Device). […] Ruthenium Red was added concurrently and a measurement was performed to determine whether or not calcium inflow in the cells was be inhibited.

Test [4] relates to guinea pig ileum. Kind of test: Isolated guinea pig gut constriction (Magnus, ileum). The method, then: Guinea pigs (Hartley strain, male, weighing 300-400 g), under ether anesthesia, were exsanguinated to death by cutting the carotid artery. The ileum was extirpated, about 15-cm portions at both ends were removed, a section 1.5 cm long was cut out from the remaining portion, and incisions were made longitudinally parallelly in the gut to prepare a tabular specimen. This specimen was sandwiched with serrefine at both ends, and suspended with a thread in a Magnus chamber containing 10 ml of a 37° C. Krebs solution (118 mM NaCl, 4.7 mM KCl, 2.5 mM CaCl2, 1.2 mM MgSO4, 1.2 mM KH2PO4, 11 mM D-glucose, 20 mM NaHCO3) aerated with 95% O2-5% CO2 mixed gas. A 1-g load was applied to the specimen, buffers were exchanged at 15-minute intervals, and the specimen was allowed to stand for about 60 minutes to stabilize its tension. Changes in the tension in response to agonist stimulation were measured isometrically, and recorded on a recorder. Acetylcholine, 10^−5 M, was administered to induce contraction of the ileum specimen; after the contraction maximized, the bath was washed three times to purge out the acetylcholine. This operation was repeated at 10-minute intervals, and after the induced contraction stabilized two consecutive times, each test substance was administered. By comparing the contractile forces produced by acetylcholine and the test substance, the effect of the test substance was evaluated. One specimen was investigated only at one concentration of the test substance. […] From the results above, it was shown that the TRPA1 activator induced gut contraction.
The serotonin receptor antagonists used were pizotifen maleate (10 μM), a 5-HT1,2 receptor antagonist, ketanserin tartrate (0.1 μM), a 5-HT2 receptor antagonist, ramosetron hydrochloride (0.3 μM), a 5-HT3 receptor antagonist, and GR113808 (0.3 μM), a 5-HT4 receptor antagonist.
The inhibitory actions of various serotonin receptor antagonists on contraction upon stimulation with acrolein (300 μM) were investigated in the same manner. […] From the results above, it was shown that serotonin was released upon stimulation with acrolein to induce contraction via serotonin receptors such as 5-HT1 receptor and 5-HT3 receptor.

On to `C=CCN=C=S` [allyl isothiocyanate], for which the bead discharge time result in test [1] is “dose-dependently ameliorated the delay of bead discharge time by loperamide; also recorded: concentration-dependently shortened bead discharge time compared to the vehicle control”. In test [2], the “serotonin secretion from RIN14B cells” value was “serotonin secretion was promoted; also recorded: concentration-dependently promoted the release of serotonin”. Moreover, in test [3], the “elevation of fluorescence intensity (calcium inflow) in RIN14B cells” value is recorded as “an elevation of fluorescence intensity was detected”. Also, in test [4] (Cavia porcellus, read-out: EC50(μM) †), the EC50 turned out to be 129 µM. Further, the Action entry in test [4] (Magnus (guinea pig ileum)) is on record as “Contraction”.
